Results published in patent US7432276B2, “ABCA1 elevating compounds” (CV Therapeutics, Inc., priority 2005, dated 2008).

System: ABCA1 mRNA
Test: ABCA1 mRNA induction in THP-1 cells, QuantiGene branched DNA assay
Format: cell-based
Details: 10 μM test compound, 18-20 hours; for fold induction at 10 µM: Homo sapiens, read-out: ABCA1 Induction Fold Increase over DMSO Vehicle
How it was run: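 THP-1 cells, grown to subconfluence, treated with compounds at 10 and 3 μM in DMEM/BSA for 18–20 h. Lysates hybridized with ABCA1-specific probe 16–18 h at 53 °C; QuantiGene branched DNA luminescence gives fold increase over DMSO.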

SMILES | ABCA1 Induction Fold Increase over DMSO Vehicle [FOLD INCREASE] | fold induction at 10 µM
COc1cccc2c1OC[C@H]1[C@H]2Nc2ccc(CCC(=O)O)cc2C1(C)C [Number 28, 3-((12aR,6aR)-4-methoxy-7,7-dimethyl-7,12,12a,6a-tetrahydrochromano[4,3-b]quinolin-9-yl)propanoic acid] | 1.9 | –
CC(C)Oc1ccc2c(c1)C(C)(C)C1COc3c(F)cccc3C1N2 (stereo not drawn) [Number 102, 4-fluoro-7,7-dimethyl-9-(methylethoxy)-7,12,12a,6a-tetrahydrochromano[4,3-b]quinoline] | 4.2 | –
COc1cccc2c1OC[C@@H]1[C@@H]2Nc2ccc(C(=O)N3CCOCC3)cc2C1(C)C [Number 120, ((6aS,12aS)-6a,7,12,12a-tetrahydro-4-methoxy-7,7-dimethyl-6H-chromeno[4,3-b]quinolin-9-yl)(morpholino)methanone] | – | 4.2
CC1(C)c2cc(C(O)(C(F)(F)F)C(F)(F)F)ccc2NC2c3cc(C(=O)O)ccc3OCC21 (stereo not drawn) [Number 16, 7,7-dimethyl-9-[2,2,2-trifluoro-1-hydroxy-1-(trifluoromethyl)ethyl]-7,12,12a,6a-tetrahydrochromano[4,3-b]quinoline-2-carboxylic acid] | 2.4 | –
COc1ccccc1-c1ccc2c(c1)C(C)(C)C1=C(c3cccc(F)c3OC1)N2O [Number 104, 4-fluoro-9-(2-methoxyphenyl)-7,7-dimethyl-7,12-dihydro-6H-chromeno[4,3-b]quinolin-12-ol] | – | 2.9
COc1cccc2c1[C@H]1Nc3ccc(-c4ccc(C(=O)O)cc4)cc3C(C)(C)[C@H]1CO2 [Number 106, 4-((12aS,6aR)-1-methoxy-7,7-dimethyl-7,12,12a,6a-tetrahydrochromano[4,3-b]quinolin-9-yl)benzoic acid] | 4.8 | –
COC(=O)c1cc2c(cc1OC)NC1c3cc(Br)ccc3OCC1C2(C)C (stereo not drawn) [Number 6, methyl 2-bromo-10-methoxy-7,7-dimethyl-7,12,12a,6a-tetrahydrochromano[4,3-b]quinoline-9-carboxylate] | 1.6 | –
COc1cccc2c1[C@H]1Nc3ccc(-c4csnn4)cc3C(C)(C)[C@H]1CO2 [Number 73, (12aS,6aR)-1-methoxy-7,7-dimethyl-9-(1,2,3-thiadiazol-4-yl)-7,12,12a,6a-tetrahydrochromano[4,3-b]quinoline] | 8.0 | –
CCOC(=O)c1cnn(-c2ccc3c(c2)C(C)(C)[C@H]2COc4cccc(OC)c4[C@H]2N3)c1C [Number 116, ethyl 1-((6aR,12aS)-6a,7,12,12a-tetrahydro-1-methoxy-7,7-dimethyl-6H-chromeno[4,3-b]quinolin-9-yl)-5-methyl-1H-pyrazole-4-carboxylate] | – | 2.7
COc1cccc2c1OC[C@H]1[C@@H]2Nc2ccc(Br)cc2C1(C)C [Number 86, (12aS,6aR)-9-bromo-4-methoxy-7,7-dimethyl-7,12,12a,6a-tetrahydrochromano[4,3-b]quinoline] | 8.4 | –
COc1cccc2c1[C@H]1Nc3ccc(-c4ccc(C#N)cc4)cc3C(C)(C)[C@@H]1CO2 [Number 92, 4-((12aS,6aS)-1-methoxy-7,7-dimethyl-7,12,12a,6a-tetrahydrochromano[4,3-b]quinolin-9-yl)benzenecarbonitrile] | 8.7 | –
COc1cccc2c1OC[C@H]1[C@@H]2Nc2ccc(-c3nc(C(=O)O)co3)cc2C1(C)C [Number 146, 2-((6aR,12aS)-6a,7,12,12a-tetrahydro-4-methoxy-7,7-dimethyl-6H-chromeno[4,3-b]quinolin-9-yl)oxazole-4-carboxylic acid] | – | 8.2
COc1cccc2c1[C@H]1Nc3ccc(C(=O)N(C)C)cc3C(C)(C)[C@H]1CO2 [Number 123, (6aR,12aS)-6a,7,12,12a-tetrahydro-1-methoxy-N,N,7,7-tetramethyl-6H-chromeno[4,3-b]quinoline-9-carboxamide] | – | 6.5
COc1cccc2c1OCC1C2Nc2ccc(CC(=O)O)cc2C1(C)C (stereo not drawn) [Number 26, 2-(4-methoxy-7,7-dimethyl-7,12,12a,6a-tetrahydrochromano[4,3-b]quinolin-9-yl)acetic acid] | 5.0 | –
CCCN1c2ccccc2C(C)(C)[C@@H]2COc3cccc(OC)c3[C@H]21 [Number 173, (6aS,12aS)-12-propyl-6a,7,12,12a-tetrahydro-1-methoxy-7,7-dimethyl-6H-chromeno[4,3-b]quinoline] | – | 1.8
COc1cccc2c1[C@H]1Nc3ccc(-n4ncc(C(=O)N5CCS(=O)(=O)CC5)c4C)cc3C(C)(C)[C@H]1CO2 [Number 141, 1-((6aR,12aS)-6a,7,12,12a-tetrahydro-1-methoxy-7,7-dimethyl-6H-chromeno[4,3-b]quinolin-9-yl)1-5-methyl-1H-pyrazole-4-((1,1-dione-1,4-thiazaperhydroin-yl)methanone)] | 7.1 | –
C#Cc1ccc2c(c1)C(C)(C)[C@H]1COc3cccc(OC)c3[C@H]1N2 [Number 95, (12aS,6aR)-9-ethynyl-1-methoxy-7,7-dimethyl-7,12,12a,6a-tetrahydrochromano[4,3-b]quinoline] | 4.3 | –
CC(=O)c1ccc2c(c1)C(C)(C)C1COc3c(F)cccc3C1N2 (stereo not drawn) [Number 101, 1-(4-fluoro-7,7-dimethyl-7,12,12a,6a-tetrahydrochromano[4,3-b]quinolin-9-yl)ethan-1-one] | 4.0 | –
COc1cccc2c1OC[C@@H]1[C@H]2Nc2ccccc2C1(C)C [Number 37, (6aS,12aR)-4-methoxy-7,7-dimethyl-7,12,12a,6a-tetrahydrochromano[4,3-b]quinoline] | 8.3 | –
CCN1c2ccccc2C(C)(C)[C@@H]2COc3cccc(OC)c3[C@H]21 [Number 163, (6aS,12aS)-12-ethyl-6a,7,12,12a-tetrahydro-1-methoxy-7,7-dimethyl-6H-chromeno[4,3-b]quinoline] | – | 3.1
CN(C)C(=O)/C=C/c1ccc2c(c1)C1Nc3ccc(C(O)(C(F)(F)F)C(F)(F)F)cc3C(C)(C)C1CO2 (stereo not drawn) [Number 36, (2E)-3-{7,7-dimethyl-9-[2,2,2-trifluoro-1-hydroxy-1-(trifluoromethyl)ethyl](7,12,12a,6a-tetrahydrochromano[4,3-b]quinolin-2-yl)}-N,N-dimethylprop-2-enamide] | – | 5.3
COc1cccc2c1[C@H]1Nc3ccc(-c4ccccc4)cc3C(C)(C)[C@@H]1CO2 [Number 94, (12aS,6aS)-1-methoxy-7,7-dimethyl-9-phenyl-7,12,12a,6a-tetrahydrochromano[4,3-b]quinoline] | 5.8 | –
CCOC(=O)CN1c2ccccc2C(C)(C)[C@H]2COc3cccc(OC)c3[C@H]21 [Number 157, ethyl 2-((6aR,12aS)-6a,7-dihydro-1-methoxy-7,7-dimethyl-6H-chromeno[4,3-b]quinolin-12(12aH)-yl)acetate] | – | 3.3
CC(C)=CCOC(=O)c1ccc2c(c1)OC[C@@H]1[C@H]2Nc2ccc(B(O)O)cc2C1(C)C [Number 10, 3-methylbut-2-enyl (6aS,12aR)-9-(dihydroxyboramethyl)-7,7-dimethyl-7,12,12a,6a-tetrahydrochromano[4,3-b]quinoline-3-carboxylate] | 1.5 | –
COc1cccc2c1[C@H]1Nc3ccc(-c4cc[nH]n4)cc3C(C)(C)[C@H]1CO2 [Number 111, (12aS,6aR)-1-methoxy-7,7-dimethyl-9-pyrazol-3-yl-7,12,12a,6a-tetrahydrochromano[4,3-b]quinoline] | 4.7 | –
COc1cc(Br)cc2c1OC[C@@H]1[C@@H]2Nc2ccc(-c3nnn[nH]3)cc2C1(C)C [Number 169, (6aS,12aS)-2-bromo-6a,7,12,12a-tetrahydro-4-methoxy-7,7-dimethyl-9-(1H-tetrazol-5-yl)-6H-chromeno[4,3-b]quinoline] | – | 9.7
CC(C)=CCOC(=O)c1ccc2c(c1)OCC1C2Nc2ccc(C(O)(C(F)(F)F)C(F)(F)F)cc2C1(C)C (stereo not drawn) [Number 12, 3-methylbut-2-enyl 7,7-dimethyl-9-[2,2,2-trifluoro-1-hydroxy-1-(trifluoromethyl)ethyl]-7,12,12a,6a-tetrahydrochromano[4,3-b]quinoline-3-carboxylate] | 4.6 | –
COc1cccc2c1OC[C@H]1[C@@H]2Nc2ccc(-c3ccc(F)cc3)cc2C1(C)C [Number 99, (12aS,6aR)-9-(4-fluorophenyl)-4-methoxy-7,7-dimethyl-7,12,12a,6a-tetrahydrochromano[4,3-b]quinoline] | – | 1.7
CCS(=O)(=O)N1CCN(C(=O)c2cnn(-c3ccc4c(c3)C(C)(C)[C@H]3COc5cccc(F)c5[C@H]3N4)c2C)CC1 [Number 144, 1-((6aR,12aS)-6a,7,12,12a-tetrahydro-1-fluoro-7,7-dimethyl-6H-chromeno[4,3-b]quinolin-9-yl)-5-methyl-1H-pyrazole-4-((4-ethanesulfonylpiperazin-1-yl)methanone)] | 2.1 | –
COC(=O)c1cccc(-c2ccc3c(c2)C(C)(C)[C@H]2COc4cccc(OC)c4[C@H]2N3)c1 [Number 113, methyl 3-((12aS,6aR)-1-methoxy-7,7-dimethyl-7,12,12a,6a-tetrahydrochromano[4,3-b]quinolin-9-yl)benzoate] | 1.5 | –
